Earlier results in paper PMC6838683, “Discovery of Human Signaling Systems: Pairing Peptides to G Protein-Coupled Receptors” (Cell, 2019).
Like-named read-outs stand apart in the source and are kept apart here. No end group written: not given here.

Biological target: human GPCRs
Parameters: method as in Guide to Pharmacology database
Conditions: max reported value, ref Guide to Pharmacology database, cited from earlier work
From the text: Supplement mmc1.xlsx, sheet "HumanGPCRLigands" | column: pKi_value; pKd_value; pEC50_value; pIC50_value

[1] = receptor gp183_human (GPR183), Class A orphans
[2] = receptor LTB4R (lt4r1_human, Q15722)
[3] = receptor CYSLTR1 (cltr1_human, Q9Y271)
[4] = receptor CYSLTR2 (cltr2_human, Q9NS75)
[5] = receptor gpbar_human (GPBAR1), Bile acid receptors
[6] = receptor crfr1_human (CRHR1, P34998)
[7] = receptor crfr2_human (CRHR2, Q13324)
[8] = receptor CXCR1 (cxcr1_human, P25024)
[9] = receptor CXCR2 (cxcr2_human, P25025)
[10] = receptor RXFP4 (rl3r2_human, Q8TDU9)
[11] = receptor CCR2 (ccr2_human, P41597)
[12] = receptor CCR3 (ccr3_human, P51677)
[13] = receptor pe2r4_human (PTGER4), Prostanoid receptors
[14] = receptor pacr_human (ADCYAP1R1, P41586)
[15] = receptor vipr1_human (VIPR1, P32241)

Compound: CSCC[C@H](NC(=O)[C@H](CC(C)C)NC(=O)CNC(=O)[C@H](Cc1ccccc1)NC(=O)[C@H](Cc1ccccc1)NC(=O)[C@H](CCC(N)=O)NC(=O)[C@H](CCC(N)=O)NC(=O)[C@@H]1CCCN1C(=O)[C@H](CCCCN)NC(=O)[C@@H]1CCCN1C(=O)[C@@H](N)CCCN=C(N)N)C(N)=O [substance P]
- pKi_value (receptor TACR1 (nk1r_human, P25103)): 10.3
- pKi_value (receptor TACR2 (nk2r_human, P21452)): 6.9
- pKi_value (receptor TACR3 (nk3r_human, P29371)): 6

Compound: NC(=O)[C@H](Cc1ccccc1)NC(=O)[C@H](Cc1c[nH]c2ccccc12)NC(=O)[C@@H]1CCCN1C(=O)[C@@H](N)Cc1ccc(O)cc1 [endomorphin-1]
- pKi_value (receptor OPRD1 (oprd_human, P41143)): 6.1

Compound: C[C@H](CCCC(C)(C)O)[C@H]1CC[C@H]2[C@@H]3[C@H](O)C=C4C[C@@H](O)CC[C@]4(C)[C@H]3CC[C@]12C [7α,25-dihydroxycholesterol]
- pEC50_value [1]: 9.9
- pIC50_value [1]: 9.6

Compound: CCCCC/C=C\C[C@@H](O)/C=C/C=C\C/C=C\CCCC(=O)O [Peptide 12R-HETE]
- pKi_value [2]: 7.5

Compound: CCCCC/C=C\C\C=C/C=C/C=C/[C@@H](SC[C@H](N)C(=O)O)[C@@H](O)CCCC(=O)O [LTE4]
- pEC50_value [3]: 6.7
- pIC50_value [3]: 7
- pKi_value [3]: 7.8
- pEC50_value [4]: 5.9
- pIC50_value [4]: 5.7
- pKi_value [4]: 6.5

Compound: GnRH II (QHWSHGWYPG; ends and bridges not checked; UniProt O43555 24-33, looked up)
- pIC50_value (receptor gnrhr_human (GNRHR, P30968)): 7.9

Compound: C[C@H](CCC(=O)O)[C@H]1CC[C@H]2[C@@H]3[C@H](O)C[C@@H]4C[C@H](O)CC[C@]4(C)[C@H]3CC[C@]12C [chenodeoxycholic acid]
- pEC50_value [5]: 5.4

Compound: O=C(O)CCC(=O)C(=O)O [α-ketoglutaric acid]
- pEC50_value (receptor oxgr1_human (OXGR1), Oxoglutarate receptors): 4.5

Compound: corticotrophin-releasing hormone
- pKd_value [6]: 9
- pKd_value [7]: 7.4

Compound: urocortin 2 (IVLSLDVPIGLLQILLEQARARAAREQATTNARILARVGHC; ends and bridges not checked; UniProt Q96RP3 72-112, looked up)
- pKd_value [7]: 8.6

Compound: O=c1ccn([C@@H]2O[C@H](CO[P@@](=O)(O)O[P@@](=O)(O)OP(=O)(O)O)[C@@H](O)[C@H]2O)c(=O)[nH]1 (stereo in doubt) [uridine triphosphate]
- pEC50_value (receptor p2ry2_human (P2RY2), P2Y receptors): 8.1
- pEC50_value (receptor p2ry4_human (P2RY4), P2Y receptors): 6.3
- pEC50_value (receptor p2ry6_human (P2RY6), P2Y receptors): 5.2
- pEC50_value (receptor p2y11_human (P2RY11), P2Y receptors): 5.2

Compound: CXCL8
- pKd_value [8]: 8.1
- pKi_value [8]: 9.5
- pKi_value [9]: 9.5

Compound: O=C(O)CCC[C@H](O)\C=C/C=C/C=C/[C@H](O)C/C=C\CCCCCO [20-hydroxy-LTB4]
- pKi_value [2]: 8.1

Compound: CCCCCCCCC/C=C\C=C\C(=O)CCCC(=O)O [Peptide 5-oxo-ODE]
- pEC50_value (receptor OXER1 (oxer1_human, Q8TDS5)): 8

Compound: INSL5 (Insulin-like peptide INSL5 B … KESVRLCGLEYIRTVIYICASSRW; Insulin-like peptide INSL5 A … QDLQTLCCTDGCSMTDLSALC; UniProt Q9Y5Q6 23-46; Q9Y5Q6 115-135, looked up)
- pEC50_value [10]: 8.9
- pIC50_value [10]: 8.9
- pKi_value [10]: 8.8

Compound: CCL13
- pIC50_value [11]: 8.7
- pIC50_value [12]: 10.3

Compound: urocortin 1 (DNPSLSIDLTFHLLRTLLELARTQSQRERAEQNRIIFDSV; ends and bridges not checked; UniProt P55089 83-122, looked up)
- pKd_value [6]: 9.5
- pKd_value [7]: 9.6

Compound: galanin-like peptide (APAHRGRGGWTLNSAGYLLGPVLHLPQMGDQDGKRETALEILDLWKAIDGLPYSHPPQPS; not fully specified; UniProt Q9UBC7 25-84, looked up)
- pIC50_value (receptor galr1_human (GALR1, P47211)): 7.1
- pIC50_value (receptor galr2_human (GALR2, O43603)): 7.7
- pIC50_value (receptor galr3_human (GALR3, O60755)): 8

Compound: CCCCC[C@H](O)/C=C/[C@@H]1[C@@H](C/C=C\CCCC(=O)O)[C@@H](O)C[C@H]1O [PGF2α]
- pKi_value (receptor PTGDR2 (pd2r2_human, Q9Y5Y4)): 6.4
- pKi_value (receptor PTGDR (pd2r_human, Q13258)): 6.4
- pKi_value (receptor pe2r1_human (PTGER1), Prostanoid receptors): 6.3
- pKi_value (receptor pe2r2_human (PTGER2), Prostanoid receptors): 6
- pKi_value (receptor pe2r3_human (PTGER3), Prostanoid receptors): 7.4
- pEC50_value [13]: 6.1
- pKi_value [13]: 9.5
- pKi_value (receptor pf2r_human (PTGFR), Prostanoid receptors): 8.5
- pKi_value (receptor ta2r_human (TBXA2R), Prostanoid receptors): 5.1

Compound: CCCCC[C@H](O)/C=C/C=C\C/C=C\C/C=C\CCCC(=O)O [Peptide 15S-HETE]
- pEC50_value (receptor LTB4R2 (lt4r2_human, Q9NPC1)): 7.5

Compound: CCCCC/C=C\C/C=C\C/C=C\C/C=C\CCCC(=O)NCCO [anandamide]
- pKi_value (receptor CNR1 (cnr1_human, P21554)): 7
- pKi_value (receptor CNR2 (cnr2_human, P34972)): 6.4

Compound: NCCc1c[nH]cn1 [histamine]
- pKi_value (receptor hrh1_human (HRH1, P35367)): 5.9
- pKi_value (receptor hrh3_human (HRH3, Q9Y5N1)): 8.3
- pKi_value (receptor hrh4_human (HRH4, Q9H3N8)): 8.3

Compound: amylin (KCNTATCATQRLANFLVHSSNNFGAILSSTNVGSNTY; not fully specified; cysteine pairing not given here; UniProt P10997 34-70, looked up)
- pEC50_value (receptor calcr_human (CALCR), Calcitonin receptors, Class B1 (Secretin)): 9.2

Compound: PACAP-38 [reference compound]
- pEC50_value [14]: 10.3
- pKi_value [14]: 9
- pEC50_value [15]: 9.7
- pKi_value [15]: 8.2
- pEC50_value (receptor vipr2_human (VIPR2, P41587)): 9.3

Compound: CXCL10
- pKi_value (receptor CXCR3 (cxcr3_human, P49682)): 9.8

Compound: CC[C@H](C)[C@H](NC(=O)[C@H](Cc1ccc(O)cc1)NC(=O)[C@@H](NC(=O)[C@@H](N)CCCNC(=N)N)C(C)C)C(=O)N[C@@H](Cc1cnc[nH]1)C(=O)N1CCC[C@H]1C(=O)N[C@@H](Cc1ccccc1)C(=O)O [angiotensin III]
- pIC50_value (receptor agtr1_human (AGTR1, P30556)): 8.5
- pKd_value (receptor agtr2_human (AGTR2, P50052)): 10.4

Compound: (-)-adrenaline
- pKi_value (receptor ada1a_human (ADRA1A, P35348)): 6.5
- pKi_value (receptor ada1b_human (ADRA1B, P35368)): 6.5
- pKi_value (receptor ada1d_human (ADRA1D, P25100)): 7.2
- pKi_value (receptor ada2a_human (ADRA2A, P08913)): 7.4
- pKi_value (receptor ada2b_human (ADRA2B, P18089)): 5.2
- pKi_value (receptor ada2c_human (ADRA2C, P18825)): 5.8
- pKi_value (receptor adrb1_human (ADRB1, P08588)): 6
- pKi_value (receptor adrb2_human (ADRB2, P07550)): 6.2
- pKi_value (receptor adrb3_human (ADRB3, P13945)): 3.9

Compound: C[C@H](CCC(=O)O)[C@H]1CC[C@H]2[C@@H]3[C@H](O)C[C@@H]4C[C@H](O)CC[C@]4(C)[C@H]3C[C@H](O)[C@]12C [cholic acid]
- pEC50_value [5]: 5

Compound: NCCC(=O)O [β-alanine]
- pEC50_value (receptor mrgrd_human (MRGPRD), Class A orphans): 4.8

Compound: CXCL3
- pIC50_value [9]: 9.2

Compound: CCL26
- pIC50_value [11]: 8.5
- pIC50_value [12]: 8.9
